“And” between values parts separate entries of the source, which are not always exact repeats. Equal entries are not always repeated.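 Method: 48-hour compound exposure of cells in 96-well plates, five concentrations, linear interpolation of endpoints. GI50: concentration for 50% inhibition of growth. TGI denotes the concentration required for complete inhibition of growth.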
Tests used:
Test in all cases: NCI-60 cell line screen, 48 h
M14 melanoma = system: M14 melanoma
SK-MEL-28 melanoma = system: SK-MEL-28 melanoma
SK-OV-3 ovarian = system: SK-OV-3 ovarian
SNB-75 CNS = system: SNB-75 CNS
HS 578T breast = system: HS 578T breast
OVCAR-8 ovarian = system: OVCAR-8 ovarian
SF-539 CNS = system: SF-539 CNS
UO-31 renal = system: UO-31 renal
UACC-62 melanoma = system: UACC-62 melanoma
SNB-19 CNS = system: SNB-19 CNS

SMILES | TGI (M14 melanoma) | TGI (SK-MEL-28 melanoma) | TGI (SK-OV-3 ovarian) | TGI (SNB-75 CNS) | TGI (HS 578T breast) | TGI (OVCAR-8 ovarian) | TGI (SF-539 CNS) | TGI (UO-31 renal) | TGI (UACC-62 melanoma) | GI50 (M14 melanoma) | GI50 (SK-MEL-28 melanoma) | GI50 (SK-OV-3 ovarian) | GI50 (SNB-19 CNS) | TGI (SNB-19 CNS) | GI50 (SNB-75 CNS) | GI50 (HS 578T breast) | GI50 (OVCAR-8 ovarian) | GI50 (SF-539 CNS) | GI50 (UO-31 renal) | GI50 (UACC-62 melanoma)
CC(=C/C=C/C=C(C)\C=C\C=C(\C)C(=O)O)/C=C/C=C(/C)C(=O)O | > 100 µM | > 100 µM | > 100 µM | > 100 µM | > 100 µM | > 100 µM | > 100 µM | > 100 µM | > 100 µM |  |  |  |  |  |  |  |  |  |  | 
Cc1cc(O)cc2c1[C@]1(C)CCC3C(C)(C)CCC[C@]3(C)[C@H]1C2 (stereo partly drawn) | 37.6 µM | 36.7 µM | 38.6 µM | 34.2 µM | 44.6 µM | 54.8 µM | 37.9 µM | 36.4 µM | 33.2 µM | 21600 nM | 20.4 µM | 21900 nM | 20800 nM | 35.7 µM | 17900 nM | 22.6 µM | 26.1 µM | 20600 nM | 20500 nM | 18600 nM
COc1cccc(/C=C/[N+](=O)[O-])c1 | 4.63 µM | 6.28 µM | 23.6 µM | 27.9 µM | 55.5 µM | 25.1 µM | 8.72 µM | 3.4 µM | 12.8 µM | 2010 nM | 2.39 µM | 11500 nM | 16500 nM | 37 µM | 12400 nM | 15.8 µM | 10.7 µM | 2640 nM | 1680 nM | 3290 nM
COc1ccc(-c2oc(=O)ccc2-c2cc(OC)c(OC)c(OC)c2)cc1O | 30.4 µM | > 100 µM | > 42.6 µM | > 100 µM | > 29.4 µM | > 100 µM | > 29.9 µM | > 51.1 µM | > 49.9 µM | 833 nM | 8.85 µM | 1650 nM | 4760 nM | > 100 µM | 1260 nM | 1.51 µM | 4.34 µM | 1370 nM | 3720 nM | 1230 nM
O=c1cc(N2CCN(CCCCCOc3cc(O)c4c(=O)cc(-c5ccccc5)oc4c3)CC2)c2ccccc2o1 | > 100 µM | > 100 µM | > 100 µM | > 100 µM | > 100 µM | > 100 µM | > 100 µM | > 100 µM | > 100 µM | 53200 nM | 61.8 µM | > 100000 nM | > 100000 nM | > 100 µM | > 100000 nM | > 100 µM | > 100 µM | 35600 nM | 50800 nM | 36200 nM
Cc1nc2sc(C(=O)Nc3cccc4ccccc34)c(N)c2cc1C(O)c1ccccc1 (stereo not drawn) | 15 µM | 24.2 µM | 67.4 µM | 11.7 µM | 0.693 µM | 71.2 µM | 0.29 µM | 14.2 µM | 12.3 µM | 40.9 nM | 1.14 µM | 70.2 nM | 108 nM | > 66.7 µM | 24.1 nM | 0.0306 µM | 0.101 µM | 34.1 nM | 283 nM | 74.7 nM
C#CC1(OC(C)=O)CCC2C3CC=C4C=C(OC(C)=O)CCC4(C)C3CCC21C (stereo not drawn) | 70.3 µM | 53.6 µM | > 100 µM | > 100 µM | > 100 µM | 46.3 µM | 40.1 µM | 54.4 µM | 44.5 µM |  |  |  |  | > 100 µM |  |  |  |  |  | 
C=C1C(C2(C)C(OC(C)=O)CC(=O)OC(C)(COC(C)=O)C2CC(=O)OC)C(OC=O)C(OC(=O)C(O)C(C)CC)C2(C)C(c3ccoc3)CC(=O)C12O (stereo not drawn) | > 100 µM | > 100 µM | > 100 µM | > 100 µM | > 100 µM | > 100 µM | > 31.6 µM | 18.1 µM | > 100 µM |  |  |  |  | > 100 µM |  |  |  |  |  | 
C/C(=N\Nc1cc(C)c2ccccc2n1)c1ccccn1 | 1.2 µM | 1.96 µM | 8.38 µM | 5.4 µM | 16.2 µM | 1.35 µM | 0.693 µM | 0.903 µM | 0.631 µM | 66 nM | 0.362 µM | 119 nM | 159 nM | 13.6 µM | 212 nM | 1.91 µM | 0.0535 µM | 77.8 nM | < 37.7 nM | 110 nM
O=C1c2ccccc2-c2oc(=O)c3ccccc3c21 | > 100 µM | > 100 µM | > 100 µM | > 100 µM | > 100 µM | > 100 µM | > 100 µM | > 100 µM | > 100 µM |  |  |  |  | > 100 µM |  |  |  |  |  | 
CCOC(=O)NC1C2CC(=O)OC(O2)C1OC(C)=O (stereo not drawn) | > 100 µM | > 100 µM | > 100 µM | > 100 µM | > 100 µM | > 100 µM | > 100 µM | > 100 µM | > 100 µM |  |  |  |  | > 100 µM |  | > 100 µM |  |  |  | 
COc1cc2c(cc1OC)-c1ccc3cc4c(cc3c1N(CCCn1ccnc1)C2)OCO4 | 15.6 µM | 17.7 µM | 26.8 µM | 19.6 µM | 40 µM | 43.6 µM | 7.36 µM | 60.5 µM | 2.72 µM | 3500 nM | 3.74 µM | 3840 nM | 790 nM | 12.7 µM | 1750 nM | 5.75 µM | 5.49 µM | 2110 nM | 16700 nM | 670 nM
C=C(CN1CCN(c2cccc(C(F)(F)F)n2)CC1)c1ccc(C(=O)Nc2ccccc2N)cc1 | > 100 µM | > 100 µM and 15.5 µM | 42.4 µM and 21.2 µM | 12.2 µM and 2.19 µM |  | 55.4 µM and > 79 µM | 16.8 µM and 2.05 µM | 72.2 µM and > 76.6 µM | > 100 µM | 966 nM and 436 nM | 2.08 µM and 0.422 µM | 2550 nM and 634 nM | 650 nM and 708 nM | 29.3 µM and 23.5 µM | 673 nM and 210 nM | 0.448 µM and 0.194 µM | 4.25 µM and 1.09 µM | 978 nM and 331 nM | 2760 nM and 465 nM | 970 nM and 510 nM
c1ccc2c(NCCCCCCNc3c4ccccc4nc4ccccc34)c3ccccc3nc2c1 | 2.58 µM |  | 4.31 µM | 2.29 µM | 3.05 µM | 3.18 µM | 0.835 µM | 23.5 µM | 2.08 µM |  |  |  |  | 4.92 µM |  |  |  |  |  | 
Cc1ccc2c(-c3ccnc(Nc4ccccc4)n3)c(-c3ccc(F)cc3)nn2n1 | > 25 µM | > 25 µM | > 25 µM | > 25 µM | > 25 µM | > 25 µM | > 19.3 µM | > 24.1 µM | > 25 µM | 9560 nM | 12.2 µM | 1390 nM | 14400 nM | > 25 µM | > 8350 nM | 8.51 µM | 9.79 µM | 6990 nM | 1010 nM | 7820 nM

— PubChem BioAssay (NCI)
